Experimental data: ChEMBL document CHEMBL1153697, “Bioactive constituents of the stem bark of Mitrephora glabra” (J Nat Prod, 2009)
Values after ≈ are worked out from the molar mass of the structure shown. Active and inactive are the calls of the source. The calls are words filed in the database; no cut-off is given here.

Columns and labels:
KB = assay: Cytotoxicity against human KB cells after 3 days by sulforhodamine B assay; assay type: functional, cell-based; details: for IC50: 72 h
[1] = test system: Mycolicibacterium smegmatis; assay: Antibacterial activity against Mycobacterium smegmatis after 3 days by broth microdilution method; assay type: functional; details: 72 h
SF-268 = assay: Cytotoxicity against human SF268 cells after 3 days by sulforhodamine B assay; assay type: functional, cell-based; details: for IC50: SF-268, 72 h
NCI-H460 = assay: Cytotoxicity against human NCI-H460 cells after 3 days by sulforhodamine B assay; assay type: functional, cell-based; details: for IC50: NCI-H460, 72 h
Saccharomyces cerevisiae = assay: Antifungal activity against Saccharomyces cerevisiae after 3 days by broth microdilution method; assay type: functional; details: 72 h
Aspergillus niger = assay: Antifungal activity against Aspergillus niger after 3 days by broth microdilution method; assay type: functional; details: 72 h
MCF7 = assay: Cytotoxicity against human MCF7 cells after 3 days by sulforhodamine B assay; assay type: functional, cell-based; details: for IC50: MCF7, 72 h
Micrococcus luteus = assay: Antibacterial activity against Micrococcus luteus after 3 days by broth microdilution method; assay type: functional; details: 72 h

MIC [1] [µg/mL]	MIC (Saccharomyces cerevisiae) [µg/mL]	MIC (Aspergillus niger) [µg/mL]	MIC (Micrococcus luteus) [µg/mL]	Structure (SMILES)	IC50 (KB) [µM]	IC50 (SF-268) [µM]	IC50 (NCI-H460) [µM]	IC50 (MCF7) [µM]	Activity (KB)	Activity (SF-268)	Activity (NCI-H460)	Activity (MCF7)
31 (≈ 95 µM)	63 (≈ 193 µM)	250 (≈ 766 µM)	125 (≈ 383 µM)	C=CCCC#CC#CC#CCCCCCC[C@@H]1C[C@@H](CO)OC1=O [OROPHEOLIDE]	10	10	10	10	–	–	–	–
–	–	–	0.1 (≈ 0.286 µM)	CC1(C)S[C@@H]2[C@H](NC(=O)[C@H](N)c3ccccc3)C(=O)N2[C@H]1C(=O)O [AMPICILLIN]	–	–	–	–	–	–	–	–
12 (≈ 42.2 µM)	25 (≈ 87.9 µM)	25 (≈ 87.9 µM)	50 (≈ 176 µM)	C=CCCC#CC#CC#CCCCCCCCC(=O)OC [METHYLOROPHEATE]	–	–	–	–	inactive	inactive	inactive	inactive
94 (≈ 348 µM)	47 (≈ 174 µM)	188 (≈ 695 µM)	94 (≈ 348 µM)	C=CCCC#CC#CC#CCCCCCCCC(=O)O [OROPHEIC ACID]	10	10	10	10	–	–	–	–
75 (≈ 198 µM)	150 (≈ 396 µM)	150 (≈ 396 µM)	150 (≈ 396 µM)	C=C1C[C@]2(C(=O)O)C[C@H]1CC[C@H]2[C@]1(C)CCC[C@@](C)(C(=O)OC)[C@H]1C(=O)O	> 10	> 10	> 10	> 10	–	–	–	–
38 (≈ 121 µM)	38 (≈ 121 µM)	38 (≈ 121 µM)	150 (≈ 477 µM)	C=C1C[C@]23C[C@H]1CC[C@H]2[C@]1(C)CCC[C@@]2(C)C(=O)O[C@@H](C3=O)[C@@H]12 [MITREKAURENONE]	> 10	> 10	> 10	> 10	–	–	–	–
0.2 (≈ 0.413 µM)	–	–	–	NC[C@H]1O[C@H](O[C@H]2[C@H](O)[C@@H](O[C@H]3O[C@H](CO)[C@@H](O)[C@H](N)[C@H]3O)[C@H](N)C[C@@H]2N)[C@H](O)[C@@H](O)[C@@H]1O [KANAMYCIN]	–	–	–	–	–	–	–	–
–	25 (≈ 27.1 µM)	25 (≈ 27.1 µM)	–	C[C@@H]1[C@H](O)[C@@H](C)/C=C/C=C/C=C/C=C/C=C/C=C/C=C/[C@H](O[C@@H]2O[C@H](C)[C@@H](O)[C@H](N)[C@@H]2O)C[C@@H]2O[C@](O)(C[C@@H](O)C[C@@H](O)[C@H](O)CC[C@@H](O)C[C@@H](O)CC(=O)O[C@H]1C)C[C@H](O)[C@H]2C(=O)O [AMPHOTERICIN B]	–	–	–	–	–	–	–	–
25 (≈ 91.8 µM)	25 (≈ 91.8 µM)	50 (≈ 184 µM)	25 (≈ 91.8 µM)	CCCCC#CC#CC#CCCCCCCCC(=O)O	10	10	10	10	–	–	–	–
12 (≈ 37 µM)	12 (≈ 37 µM)	12 (≈ 37 µM)	50 (≈ 154 µM)	C=CCCC#CC#CC#C/C=C/CCCC[C@@H]1C[C@@H](CO)OC1=O	10	10	10	10	–	–	–	–
50 (≈ 165 µM)	50 (≈ 165 µM)	100 (≈ 331 µM)	50 (≈ 165 µM)	C=C1C[C@@]23CC[C@H]4[C@@](C)(CCC[C@]4(C)C(=O)O)[C@@H]2CC[C@@H]1C3	> 10	> 10	> 10	> 10	–	–	–	–

Structure (SMILES)	MIC [1] [µg/mL]	MIC (Saccharomyces cerevisiae) [µg/mL]	MIC (Aspergillus niger) [µg/mL]	MIC (Micrococcus luteus) [µg/mL]	IC50 (KB) [µM]	IC50 (SF-268) [µM]	IC50 (NCI-H460) [µM]	IC50 (MCF7) [µM]	Activity (KB)	Activity (SF-268)	Activity (NCI-H460)	Activity (MCF7)
O=C1c2ccccc2-c2c3c(cc4ccnc1c24)OCO3 [LIRIODENINE]	12 (≈ 43.6 µM)	12 (≈ 43.6 µM)	25 (≈ 90.8 µM)	6.3 (≈ 22.9 µM)	5	5	5	5	–	–	–	–
